Measured values published in US12383556B2, “Methods of treating Sjögren's syndrome using a Bruton's tyrosine kinase inhibitor” (NOVARTIS AG, priority 2019, dated 2025).
Where two headings read alike, the source gives them in different places.

Key:
[1] = Safety and tolerability in healthy volunteers (first-in-human study); type: in vivo; conditions: for overall safety assessment: dosing up to 600 mg (200 mg twice daily)
Method: Standard safety monitoring was used throughout all study parts. A dedicated assessment of potential skin bruising events were included. All vital signs, physical examination and subject history, ECGs, adverse events, and laboratory safety parameters (blood chemistry, hematology and urinalysis) up to 96 hours post last dose as well as PK data from the previous dose group (if available) up to 48 hours post last dose were to be reviewed in a blinded fashion for each cohort before dose escalation. Summary safety reports of reported adverse events, clinical safety laboratory parameters, QTc and heart rate were provided after completion of each dose level.
For the analysis of adverse effects, the Placebo subjects from all SAD and MAD cohorts (2 per cohort) and separated by the SAD and MAD parts were pooled into one Placebo group (n=20 for SAD and n=16 for MAD) to be compared with each single compound (I) dose group (n=6 each) and the total compound (I) group (n=60 for SAD and n=48 for MAD). There were no apparent major differences in the demographic data between placebo and the active groups both for the SAD and MAD populations.

[2] = system: FcεR1-mediated basophil activation; experiment: Ex vivo basophil activation (CD63, CD203c), whole blood stimulated with anti-IgE, flow cytometry; type: in vivo, human
Method: In addition, ex vivo inhibition of basophil activation (monitored by surface expression of CD63 and CD203c) was used as distal mechanistic biomarker to test downstream PD effects of compound (I). To determine the PD effect of compound (I) on basophil activation, whole blood was stimulated ex vivo with anti-IgE. Degranulation was evaluated by percentage of CD63+ and CD203+ basophils by flow cytometry.

[3] = First-in-human Part 4 multiple dose b.i.d. blood PK; type: in vivo
From the text: (§1) First-in-human study in up to approximately 168 healthy volunteers (HVs), of which 64 (in Parts 2 & 4) had asymptomatic atopic diathesis. • Part 1 was a double-blind (subject and investigator blind, sponsor unblinded), placebo-controlled single ascending dose (SAD) escalation study of 10 cohorts (N=80) • Part 2 was a double-blind (subject and investigator blind, sponsor unblinded), placebo-controlled multiple ascending dose (MAD) (13 doses over 12 days) escalation study employing once daily dosing in 6 cohorts in healthy volunteers with asymptomatic atopic diathesis (N=48) • Part 3 was a single dose open-label crossover food effect study in 12 HVs • Part 4 was a double-blind (subject and investigator blind, sponsor unblinded), placebo-controlled multiple dose (25 doses over 12 days) study employing twice daily dosing in 2 cohorts of healthy volunteers with asymptomatic atopic diathesis (N=16)
In Parts 2 and 4, subjects were admitted on Day −2 or −1 for baseline safety assessments and to confirm eligibility. Eligible subjects received the first dose of compound (I) under fasting conditions on Day 1, and continued to take study medication under fasting conditions up to and including Day 12. Subjects were domiciled from Day −2 or −1 until the morning of Day 16, which equals 96 hours after the last dose of compound (I) was received. In Parts 2 and 4, the study medication was given once daily and twice daily respectively (details are found in the schedule of assessments).
Subjects were assigned to one of the following cohorts. In each cohort, 8 subjects were randomized to either Compound (I) or matching placebo in a 6:2 ratio. • Cohort 1: multiple oral doses of 100 mg Compound (I) or matching placebo in a bid regimen • Cohort 2: multiple oral doses of 200 mg Compound (I) or matching placebo in a bid regimen
Pharmacokinetic samples were obtained in blood and evaluated in all subjects at all dose levels. The samples from placebo subjects were not analyzed. […] Compound (I) concentrations were determined in blood by a validated LC-MS/MS method.

[4] = system: mast cell FcγRIII-mediated inflammation; experiment: Reverse passive Arthus (RPA) model, skin swelling; type: in vivo
Method: As the levels of BTK-expressing cells in skin were too low to allow occupancy measurement, the duration of the PD effect in skin after single dose was assessed in the reverse passive Arthus (RPA) model of mast cell FcγRIII-mediated inflammation. In this model, the inhibition of skin swelling was maximal when compound (I) was dosed 2 hours prior to eliciting the Arthus reaction. The effect diminished gradually and reached baseline when the Arthus reaction was triggered 45 hours or later after compound (I) dosing.

[5] = First-in-human Part 3 food effect PK, single 60 mg dose; type: in vivo; conditions: for Tmax / AUC(0-t): human, oral, 60 mg
From the text: as §1
Part 3 was an open-label, randomized, two-way cross-over, single dose study to assess food effects. In Part 3, each subject participated in a 28 day screening period (Day −29 to −2), 2 baseline (Day −1) and 2 treatment periods, each consisting of a single dose administration on Day 1 followed by safety and PK assessment up to Day 5. Treatment period 2 consisted of a follow-up visit and an end of study evaluation on Day 22 and 40, respectively. The two treatment periods were separated by a wash-out period of at least 18 days (+/−1 day).
Subjects were randomized to one of the 2 treatment sequences in the ratio of 1:1:
Pharmacokinetic samples were obtained in blood and evaluated in all subjects at all dose levels. The samples from placebo subjects were not analyzed. The samples for PK assessments from subjects were collected at time points defined in the study. Compound (I) concentrations were determined in blood by a validated LC-MS/MS method.

[6] = Blood exposure of compound (I) after oral dose in rats; type: in vivo; conditions: female, rat, 1 mg/kg dose
Method: From the experimental data it was apparent that a short transient systemic exposure of compound (I) is sufficient to achieve full BTK occupancy in several tissues at low oral doses of 1-3 mg/kg. […] This very low and transient systemic exposure is consistent with the PK/PD model typical of irreversible inhibitors.

[7] = single dose 60 mg, FAST, Geomean
[8] = single dose 60 mg, FED, Geomean

increase of AUCtau from 100 mg to 200 mg b.i.d. ([3]; day 12): dose proportional increase
increase of Cmax from 100 mg to 200 mg b.i.d. ([3]; day 12): 1.33 fold
Tmax ([3]; human, blood, oral, b.i.d. regimen 100 mg and 200 mg): ~1 h
Tmax ([5]; blood, fasted, read-out: mean Tmax): 1 h
Tmax ([5]; blood, fed, read-out: mean Tmax): > 3 h
AUC(0-t) ([5]; blood, single dose 60 mg, FAST, Geomean, read-out: AUC0-24): 182 ng·h/mL
AUC(0-t) ([5]; blood, single dose 60 mg, FAST, Geomean, read-out: AUClast): 177 ng·h/mL
AUC(0-t) ([5]; blood, single dose 60 mg, FAST, Mean, read-out: AUC0-24): 202 ng·h/mL
AUC(0-t) ([5]; blood, single dose 60 mg, FAST, Mean, read-out: AUClast): 196 ng·h/mL
Tmax ([5]; blood, single dose 60 mg, FED, Geomean, read-out: Tmax): 3.18 h
Tmax ([5]; whole blood, single dose 60 mg, FAST, Geomean, read-out: Tmax): 0.95 h
Tmax ([5]; whole blood, single dose 60 mg, FAST, Mean, read-out: Tmax): 1.02 h
AUC(0-t) ([5]; whole blood, single dose 60 mg, FED, Geomean, read-out: AUC0-24): 249 ng·h/mL
AUC(0-t) ([5]; whole blood, single dose 60 mg, FED, Mean, read-out: AUC0-24): 264 ng·h/mL
AUC(0-t) ([5]; whole blood, single dose 60 mg, FED, Mean, read-out: AUClast): 252 ng·h/mL
Tmax ([5]; whole blood, single dose 60 mg, FED, Mean, read-out: Tmax): 3.42 h
Cmax [5, 7]: 100.95 ng/mL
Tlast [5, 7]: 9.66 h
Cmax ([5]; single dose 60 mg, FAST, Mean): 114.81 ng/mL
Tlast ([5]; single dose 60 mg, FAST, Mean): 10.50 h
AUClast [5, 8]: 237.84 ng·h/mL
Cmax [5, 8]: 80.86 ng/mL
Tlast [5, 8]: 9.25 h
Cmax ([5]; single dose 60 mg, FED, Mean): 83.39 ng/mL
Tlast ([5]; single dose 60 mg, FED, Mean): 9.50 h
higher AUC0-24 fed vs fasted ([5]; single oral dose 60 mg): 1.4 fold
lower Cmax fed vs fasted ([5]; single oral dose 60 mg): 1.25 fold
concentration at 0.5 h ([6]; 0.5 hours post dose): 49.1 nM
concentration at 5 h ([6]; 5 hours post dose): 5.6 nM
Structure (SMILES): C=CC(=O)N(C)CCOc1c(N)ncnc1-c1cc(F)cc(NC(=O)c2ccc(C3CC3)cc2F)c1C [Compound of Formula (I), N-(3-(6-Amino-5-(2-(N-methylacrylamido)ethoxy)pyrimidin-4-yl)-5-fluoro-2-methylphenyl)-4-cyclopropyl-2-fluorobenzamide]
serious or severe adverse events related to intake ([1]; 0.5 mg to 600 mg, healthy volunteers): no serious or severe adverse event
tolerability ([1]; 0.5 mg to 600 mg, single dose or up to 18 days once or twice daily): well tolerated
overall safety assessment [1]: proven to be safe
overall safety assessment ([1]; listed as compound (I)): does not reveal significant safety concerns
nature of observed adverse events ([1]; healthy volunteers): generally mild in nature
reduction of CD63 up-regulation ([2]; 10 mg q.d., as restated): > 80%
inhibition of CD63 upregulation ([2]; 10 mg q.d., day 12 (steady state), 8 h after administration): > 90%
maximum trough inhibition of CD203c activation ([2]; Day 12, multiple doses): only achieved with b.i.d. administration of 100 mg and 200 mg
trough level inhibition of CD63 ([2]; doses ≥50 mg q.d., day 12): > 90%
inhibition of ex vivo basophil activation measured by CD63 ([2]; single dose 60 mg, 24 h post dose): > 89%
maximum inhibition of CD203c ([2]; single dose 200 mg, 24 h post dose): ~50%
inhibition of ex vivo basophil activation measured by CD63 ([2]; single doses higher than 60 mg, 24 h post dose): ~100%
time after dosing of Arthus trigger at which effect reached baseline ([4]; single dose): ≥ 45 h
inhibition of skin swelling ([4]; single dose 2 hours prior to eliciting the Arthus reaction): maximal
